Results from ChEMBL document CHEMBL1126814, “Oxindole N-Methyl-D-Aspartate (NMDA) antagonists” (Bioorg Med Chem Lett, 1993).

Experiments:
[1] = Ratio of the IC50s of the two assays (alpha1 adrenoceptor binding assay/GT functional assay) used as an estimate of Therapeutic Index
[2] = molecular target: T1, Adrenergic receptor alpha-1 (Rattus norvegicus, UniProt P15823+P23944+P43140); test: Tested for the Alpha-1 adrenergic receptor affinity in a standard radioligand binding assay with [3H]- prazosin; assay type: protein assay
T1 sequence (P15823 whole entry): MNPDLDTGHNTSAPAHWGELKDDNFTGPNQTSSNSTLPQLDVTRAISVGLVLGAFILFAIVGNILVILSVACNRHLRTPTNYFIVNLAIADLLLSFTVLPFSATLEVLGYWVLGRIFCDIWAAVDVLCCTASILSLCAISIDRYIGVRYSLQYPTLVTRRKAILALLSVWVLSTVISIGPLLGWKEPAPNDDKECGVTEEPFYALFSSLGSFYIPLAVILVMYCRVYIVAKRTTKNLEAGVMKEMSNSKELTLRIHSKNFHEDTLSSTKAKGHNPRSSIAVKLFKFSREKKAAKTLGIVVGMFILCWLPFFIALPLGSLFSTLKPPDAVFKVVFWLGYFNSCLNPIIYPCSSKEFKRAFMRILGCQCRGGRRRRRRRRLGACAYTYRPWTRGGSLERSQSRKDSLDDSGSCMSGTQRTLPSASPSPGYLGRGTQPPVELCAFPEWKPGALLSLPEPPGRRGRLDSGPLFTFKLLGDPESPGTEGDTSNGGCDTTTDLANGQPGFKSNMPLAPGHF
T1 sequence (P23944 whole entry): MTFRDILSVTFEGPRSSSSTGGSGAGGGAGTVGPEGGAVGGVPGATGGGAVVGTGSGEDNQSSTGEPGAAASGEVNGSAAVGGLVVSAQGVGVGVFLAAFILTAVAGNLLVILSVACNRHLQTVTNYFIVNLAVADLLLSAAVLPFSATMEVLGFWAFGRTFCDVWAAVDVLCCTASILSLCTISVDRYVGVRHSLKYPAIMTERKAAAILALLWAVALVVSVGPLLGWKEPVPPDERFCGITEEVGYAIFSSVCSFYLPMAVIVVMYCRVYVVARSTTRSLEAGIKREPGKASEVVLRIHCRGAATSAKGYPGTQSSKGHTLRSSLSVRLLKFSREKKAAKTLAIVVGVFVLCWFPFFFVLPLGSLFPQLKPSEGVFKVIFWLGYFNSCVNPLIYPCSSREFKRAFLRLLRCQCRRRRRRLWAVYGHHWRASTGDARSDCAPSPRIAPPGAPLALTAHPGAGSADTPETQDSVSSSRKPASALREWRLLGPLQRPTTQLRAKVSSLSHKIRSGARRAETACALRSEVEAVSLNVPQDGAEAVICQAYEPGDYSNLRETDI
T1 sequence (P43140 whole entry): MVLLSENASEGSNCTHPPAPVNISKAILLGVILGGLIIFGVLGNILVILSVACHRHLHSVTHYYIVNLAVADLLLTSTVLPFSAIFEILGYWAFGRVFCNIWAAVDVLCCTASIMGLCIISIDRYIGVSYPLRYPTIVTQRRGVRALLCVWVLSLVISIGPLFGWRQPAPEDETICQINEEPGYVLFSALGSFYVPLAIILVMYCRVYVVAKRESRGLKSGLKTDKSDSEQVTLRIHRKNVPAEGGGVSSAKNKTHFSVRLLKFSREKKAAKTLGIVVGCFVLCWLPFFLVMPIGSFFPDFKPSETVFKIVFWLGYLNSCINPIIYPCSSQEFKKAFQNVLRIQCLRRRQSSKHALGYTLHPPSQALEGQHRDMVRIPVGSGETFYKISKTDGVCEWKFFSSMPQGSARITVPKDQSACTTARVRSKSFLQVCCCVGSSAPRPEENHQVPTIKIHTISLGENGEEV

C[C@@H]([C@@H](O)c1ccc(O)cc1)N1CCC(Cc2ccccc2)CC1 gave a TI [1] of 15.3.

OC(CN1CCC(Cc2ccc(F)cc2)CC1)c1ccc(Cl)cc1 (stereo not drawn) [ELIPRODIL] showed an IC50 [2] of 800 nM and a TI [1] of 0.8.

O=C1Cc2cc(C(O)CN3CCC(Cc4ccc(F)cc4)CC3)ccc2N1 (stereo not drawn) gave an IC50 [2] of 183 nM and a TI [1] of 0.3.

For C[C@@H]([C@H](O)c1ccc(O)cc1)N1CCC(Cc2ccccc2)CC1 [(R,S)-IFENPRODIL], the IC50 [2] was 100 nM and the TI [1] was 0.38.

C[C@@H]([C@@H](O)c1ccc2c(c1)CC(=O)N2)N1CCC(c2ccccc2)CC1 gave an IC50 [2] of 349 nM and a TI [1] of 8.7.

With C[C@@H]([C@H](O)c1ccc2c(c1)CC(=O)N2)N1CCC(Cc2ccccc2)CC1 the IC50 [2] was 100 nM and the TI [1] was 0.4.

In the case of C[C@@H]([C@@H](O)c1ccc2c(c1)CC(=O)N2)N1CCC(Cc2ccccc2)CC1, the IC50 [2] is reported as 710 nM and the TI [1] is reported as 6.4.
